Experimental data taken from US20130164259A1, “1,4-S[…] DERIVATIVES AND METHODS OF USE THEREOF” (priority 2009, published 2013).

Each compound was assayed against T1, HCV NS5B polymerase (NS5BΔCT21) (Hepatitis C virus genotype 1b, UniProt Q9WMX2) (assay: HCV NS5B Polymerase Inhibition Assay).
T1 construct: A soluble C-terminal 21-amino acid truncated NS5B enzyme form; polyhistidine (C); made in house; host or cells: Escherichia coli
Type: biochemical, HCV-Con 1 isolate
Source text: A chemically synthesized 75-mer version, designated DCoH75, whose sequence matches the 3′-end of D-RNA, and DCoH75ddC, where the 3′-terminal cytidine of DCoH75 is replaced by dideoxycytidine, were used for assaying the NS5B enzyme activity as described in Ferrari et al., 12th International Symposium on HCV and Related Viruses, P-306 (2005). The sequence of the template RNA was: 5′-UGUGCCGGUCUUUCUGAACGGGAUAUAAACCUGGCCAGCUUCAUCGAACAAGUUGCCGUGUCUAUGACAUAGAUC-3′ (SEQ ID NO: 1). A soluble C-terminal 21-amino acid truncated NS5B enzyme form (NS5BΔCT21, from HCV-Con 1 isolate, genotype 1b, Genbank accession number AJ238799) was produced and purified from Escherichia coli as C-terminal polyhistidine-tagged fusion protein as described in Ferrari et al., J. Virol. 73:1649-1654 (1999). A typical assay contained 20 mM Hepes pH 7.3, 10 mM MgCl2, 60 mM NaCl, 100 μg/ml BSA, 20 units/ml RNasin, 7.5 mM DTT, 0.1 μM ATP/GTP/UTP, 0.026 μM CTP, 0.25 mM GAU, 0.03 μM RNA template, 20 μCi/ml [^33P]-CTP, 2% DMSO, and 30 or 150 nM NS5B enzyme. Reactions were incubated at 22° C. for 2 hours, then stopped by adding 150 mM EDTA, washed in DE81 filter plate in 0.5M di-basic sodium phosphate buffer, pH 7.0, and counted using Packard TopCount after the addition of scintillation cocktail. Polynucleotide synthesis was monitored by the incorporation of radiolabeled CTP. The effect of the Compounds of Formula (I) on the polymerase activity was evaluated by adding various concentrations of a Compound of Formula (I), typically in 10 serial 2-fold dilutions, to the assay mixture. The starting concentrations ranged from 200 μM to 1 μM. An IC50 value for the inhibitor, defined as the compound concentration that provides 50% inhibition of polymerase activity, was determined by fitting the cpm data to the Hill equation Y=100/(1+10̂((LogIC50−X)*HillSlope)), where X is the logarithm of compound concentration, and Y is the % inhibition. Ferrari et al., 12th International Symposium on HCV and Related Viruses, P-306 (2005) described in detail this assay procedure. It should be noted that such an assay as described is exemplary and not intended to limit the scope of the invention. The skilled practitioner can appreciate that modifications including but not limited to RNA template, primer, nucleotides, NS5B polymerase form, buffer composition, can be made to develop similar assays that yield the same result for the efficacy of the compounds and compositions described in the invention.
NS5B polymerase inhibition data was calculated for the compounds of the present invention using this method and is set forth in the table below.

SMILES | IC50 [µM]
Cc1oncc1C(=O)Nc1ccc(C(C)C)cc1N1CCN(c2cnccn2)CC1 [Compound 27] | 13
CC(C)c1ccc(NC(=O)c2cccnc2C2CC2)c(N2CCN(c3cnccn3)CC2)c1 [Compound 3] | 2
Cc1cnc(C(=O)Nc2ccc(C(C)C)cc2N2CCN(c3cnccn3)CC2)cn1 [Compound 36] | > 20
Cc1nccnc1N1CCN(c2cc(C(C)C)ccc2NC(=O)c2cccnc2)CC1 [Compound 45] | 3.9
Cc1ncoc1C(=O)Nc1ccc(C(C)C)cc1N1CCN(c2cnccn2)CC1 [Compound 28] | 14
Cc1ncccc1C(=O)Nc1ccc(C(C)C)cc1N1CCN(c2ncnc3[nH]ccc23)CC1 [Compound 60] | 0.032
CC(C)c1ccc(NC(=O)c2cnc3[nH]ccc3c2)c(N2CCN(c3cnccn3)CC2)c1 [Compound 24] | > 20
C=C(C)c1ccc(NC(=O)c2cccnc2)c(N2CCN(c3cnccn3)CC2)c1 [Compound 64] | 7
Cc1ncsc1C(=O)Nc1ccc(C(C)C)cc1N1CCN(c2cnccn2)CC1 [Compound 20] | 0.58
Cc1c(F)cccc1C(=O)Nc1ccc(C(C)C)cc1N1CCN(c2cnccn2)CC1 [Compound 13] | 4.1
CC(C)c1ccc(NC(=O)c2cccnc2)c(N2CCN(C(=O)OC(C)(C)C)CC2)c1 [Compound 53] | > 200
CC(C)c1ccc(NC(=O)c2ccc(C(F)(F)F)nc2)c(N2CCN(c3cnccn3)CC2)c1 [Compound 25] | 2.3
Cc1nc(Br)sc1C(=O)Nc1ccc(C(C)C)cc1N1CCN(c2cnccn2)CC1 [Compound 21] | 3
CC(C)c1ccc(NC(=O)c2cccnc2C(F)(F)F)c(N2CCN(c3cnccn3)CC2)c1 [Compound 7] | 2.3
CC(C)c1ccc(NC(=O)c2cccnc2)c(N2CCN(c3ccncn3)CC2)c1 [Compound 41] | 0.56
Cc1nccc(N2CCN(c3cc(C(C)C)ccc3NC(=O)c3cccnc3)CC2)n1 [Compound 42] | 0.16
CC(C)c1ccc(NC(=O)c2ccnc(NC(=O)C(C)(C)C)c2)c(N2CCN(c3cnccn3)CC2)c1 [Compound 37] | > 20

SMILES | IC50 [µM]
CCOC(=O)c1ccc(NC(=O)c2cccnc2)c(N2CCN(c3cnccn3)CC2)c1 [Compound 69] | > 5
C=C(C)c1ncccc1C(=O)Nc1ccc(C(C)C)cc1N1CCN(c2cnccn2)CC1 [Compound 4] | > 200
Cc1ncccc1C(=O)Nc1ccc(C(C)C)cc1N1CCN(c2cncc(-c3ccccc3)n2)CC1 [Compound 62] | 17
CC(C)c1ccc(NC(=O)c2cccnc2)c(N2CCN(C(=O)Nc3ccccc3)CC2)c1 [Compound 52] | > 100
Cc1c(F)cc(C(=O)Nc2ccc(C(C)C)cc2N2CCN(c3cnccn3)CC2)cc1F [Compound 16] | 5.6
CC(C)c1ccc(NC(=O)c2ccsc2)c(N2CCN(c3cnccn3)CC2)c1 [Compound 23] | 7
CC(C)c1ccc(NC(=O)C2CCCNC2)c(N2CCN(c3cnccn3)CC2)c1 (stereo not shown) [Compound 32] | > 200
CNCC(=O)N1CCN(c2cc(C(C)C)ccc2NC(=O)c2cccnc2)CC1 [Compound 56] | > 200
CC(C)(C)c1ccc(NC(=O)c2cccnc2)c(N2CCN(c3cnccn3)CC2)c1 [Compound 63] | 3
CC(C)c1ccc(NC(=O)c2cccc(O)n2)c(N2CCN(c3cnccn3)CC2)c1 [Compound 9] | 46
O=C(Nc1ccc(C(F)(F)F)cc1N1CCN(c2cnccn2)CC1)c1cccnc1 [Compound 68] | > 20
Cc1c(F)ccc(F)c1C(=O)Nc1ccc(C(C)C)cc1N1CCN(c2cnccn2)CC1 [Compound 15] | 54
CC(C)c1ccc(NC(=O)c2cccnc2-c2ccccc2)c(N2CCN(c3cnccn3)CC2)c1 [Compound 5] | > 200
CSCc1nccc(N2CCN(c3cc(C(C)C)ccc3NC(=O)c3cccnc3C)CC2)n1 [Compound 58] | 0.027
O=C(Nc1ccc(-c2ccccc2)cc1N1CCN(c2cnccn2)CC1)c1cccnc1 [Compound 67] | 8
CC(C)c1ccc(NC(=O)c2cnc3ccccc3c2)c(N2CCN(c3cnccn3)CC2)c1 [Compound 19] | 6.7
CC(C)c1ccc(NC(=O)c2cccnc2F)c(N2CCN(c3cnccn3)CC2)c1 [Compound 6] | 2.2
